For 22 compounds, IC50 and melting point results are on record in publication PMC6332235, “Phosphonylated Acyclic Guanosine Analogues with the 1,2,3-Triazole Linker” (Molecules, 2015).

Read-outs that look alike come from different tables or passages of the source.

The test system of data set [1] is human T-lymphocyte CEM cells. Put plainly: Cytostatic activity: inhibition of proliferation of human T-lymphocyte CEM cells. The conditions noted are these: read-out: IC50 (CEM). The class given is cell-based. As to the method: (§1) The cytotoxicity of the tested compounds toward the uninfected host cells was defined as the minimum cytotoxic concentration (MCC) that causes a microscopically-detectable alteration of normal cell morphology. The 50% cytotoxic concentration (CC50), causing a 50% decrease in cell viability, was determined using a colorimetric 3-(4,5-dimethylthiazol-2-yl)-5-(3-carboxymethoxyphenyl)-2-(4-sulfophenyl)-2H-tetrazolium (MTS) assay system. The cytostatic activity of the tested compounds was defined as the 50% cytostatic inhibitory concentration (IC50), causing a 50% decrease in cell proliferation, and was determined against murine leukemia L1210, human T-lymphocyte CEM and human cervix carcinoma HeLa cells (Table 1).
(§2) All assays were performed in 96-well microtiter plates. To each well were added (5−7.5) × 10^4 tumor cells and a given amount of the test compound. The cells were allowed to proliferate for 48 h (murine leukemia L1210 cells) or 72 h (human lymphocytic CEM and human cervix carcinoma HeLa cells) at 37 °C in a humidified CO2-controlled atmosphere. At the end of the incubation period, the cells were counted in a Coulter counter. The IC50 (50% inhibitory concentration) was defined as the concentration of the compound that inhibited cell proliferation by 50%.

In data set [2] the test system is human cervix carcinoma HeLa cells. Put plainly: Cytostatic activity: inhibition of proliferation of human cervix carcinoma HeLa cells. The settings on record: read-out: IC50 (HeLa). In kind it is cell-based. As to the method: as §1, §2
The test system of data set [3] is murine leukemia L1210 cells. Put plainly: Cytostatic activity: inhibition of proliferation of murine leukemia L1210 cells. The class given is cell-based. As to the method: as §1, §2
The mark [4] stands for this setting: CCRF-CEM, human T-lymphocyte CEM cells, 72 h proliferation, Coulter counter.
[5] abbreviates: human cervix carcinoma HeLa cells, 72 h proliferation, Coulter counter.
The mark [6] stands for this setting: Mus musculus, L1210, 48 h, murine leukemia L1210 cells, 48 h proliferation, Coulter counter, read-out: IC50 (L1210).
The mark [7] stands for this setting: Mus musculus, L1210, range over both L1210 and CEM cells and both 17k isomers, read-out: IC50 against proliferation of L1210 and CEM cell lines (range given).
Where [8] appears, read: range over both L1210 and CEM cells and both 17k isomers, read-out: IC50 against proliferation of L1210 and CEM cell lines (range given).
Where [9] appears, read: Mus musculus, L1210, 48 h, read-out: IC50 (L1210).

In the case of `O=c1[nH]cc(F)c(=O)[nH]1` [5-fluorouracil, reference compound], the IC50 came out at 18 ± 5 µM in data set [1] (setting [4]), 0.54 ± 0.12 µM in data set [2] (setting [5]) and 0.33 ± 0.17 µM in data set [3] (setting [6]).

For the compound `Nc1nc(Cl)c2ncn(Cc3cn(C[C@H](OCc4ccccc4)[C@H](O)P(=O)(OCc4ccccc4)OCc4ccccc4)nn3)c2n1` [(1R,2S)-17k, (1R,2S)-Dibenzyl 3-{4-[(2-amino-6-chloro-9H-purin-9-yl)methyl]-1H-1,2,3-triazol-1-yl}-2-benzyloxy-1-hydroxypropylphosphonate], the IC50 in data set [1] (setting [4]) was 26 ± 8 µM; in data set [2] (setting [5]), 90 ± 33 µM; in data set [3] (setting [6]), 21 ± 2 µM; in data set [3] (setting [7]), 15 to 30 µM; in data set [3] (setting [8]), 16 to 30 µM.

The melting point is the temperature, or range, at which the solid turns liquid. The compound `Nc1nc(Cl)c2ncn(Cc3cn(C[C@H](OCc4ccccc4)[C@@H](O)P(=O)(OCc4ccccc4)OCc4ccccc4)nn3)c2n1` [(1S,2S)-17k, (1S,2S)-Dibenzyl 3-{4-[(2-amino-6-chloro-9H-purin-9-yl)methyl]-1H-1,2,3-triazol-1-yl}-2-benzyloxy-1-hydroxypropylphosphonate] displayed a melting point of 76 to 78 °C. Besides, the IC50 in data set [1] (setting [4]) is 30 ± 16 µM. Also, the IC50 in data set [2] (setting [5]) came to 84 ± 12 µM. Also, in data set [3] (setting [6]), the IC50 is 16 ± 6 µM. Besides, in data set [3] (setting [7]), the IC50 lay in the range of 15 to 30 µM. The IC50 in data set [3] (setting [8]) lay in the range of 16 to 30 µM.

With `CCOP(=O)(Cn1cc(Cn2cnc3c(=O)[nH]c(N)nc32)nn1)OCC` [Compound 16a, Diethyl {4-[(2-amino-6-oxo-1,6-dihydro-9H-purin-9-yl)methyl]-1H-1,2,3-triazol-1-yl}methylphosphonate], the IC50 in data set [1] (Homo sapiens, CCRF-CEM, 72 h) is greater than 250 µM; in data set [2] (Homo sapiens, HeLa, 72 h), greater than 250 µM; in data set [3] (setting [9]) it was greater than 250 µM.

For `CCOP(=O)(CCn1cc(Cn2cnc3c(=O)[nH]c(N)nc32)nn1)OCC` [Compound 16b, Diethyl 2-{4-[(2-amino-6-oxo-1,6-dihydro-9H-purin-9-yl)methyl]-1H-1,2,3-triazol-1-yl}ethylphosphonate], the IC50 was greater than 250 µM in data set [1] (Homo sapiens, CCRF-CEM, 72 h); greater than 250 µM in data set [2] (Homo sapiens, HeLa, 72 h); greater than 250 µM in data set [3] (setting [9]).

`CCOP(=O)(CCCn1cc(Cn2cnc3c(=O)[nH]c(N)nc32)nn1)OCC` [Compound 16c, Diethyl 3-{4-[(2-amino-6-oxo-1,6-dihydro-9H-purin-9-yl)methyl]-1H-1,2,3-triazol-1-yl}propylphosphonate]: the IC50 in data set [1] (Homo sapiens, CCRF-CEM, 72 h) is greater than 250 µM; in data set [2] (Homo sapiens, HeLa, 72 h) it was 138 ± 52 µM; in data set [3] (setting [9]), greater than 250 µM.

As to `CCOP(=O)(CCCCn1cc(Cn2cnc3c(=O)[nH]c(N)nc32)nn1)OCC` [Compound 16d, Diethyl 4-{4-[(2-amino-6-oxo-1,6-dihydro-9H-purin-9-yl)methyl]-1H-1,2,3-triazol-1-yl}butylphosphonate], the IC50 is greater than 250 µM in data set [1] (Homo sapiens, CCRF-CEM, 72 h); 148 ± 25 µM in data set [2] (Homo sapiens, HeLa, 72 h); greater than 250 µM in data set [3] (setting [9]).

On to `CCOP(=O)(OCC)C(O)Cn1cc(Cn2cnc3c(=O)[nH]c(N)nc32)nn1` (centres unmarked) [Compound 16e, Diethyl 2-{4-[(2-amino-6-oxo-1,6-dihydro-9H-purin-9-yl)methyl]-1H-1,2,3-triazol-1-yl}-1-hydroxyethylphosphonate], for which the melting point is greater than 265 °C. In addition, in data set [1] (Homo sapiens, CCRF-CEM, 72 h), the IC50 is greater than 250 µM. Also, in data set [2] (Homo sapiens, HeLa, 72 h), the IC50 worked out at 206 ± 49 µM. In data set [3] (setting [9]), the IC50 is greater than 250 µM.

Regarding `CCOP(=O)(CC(O)Cn1cc(Cn2cnc3c(=O)[nH]c(N)nc32)nn1)OCC` (centres unmarked) [Compound 16f, Diethyl 3-{4-[(2-amino-6-oxo-1,6-dihydro-9H-purin-9-yl)methyl]-1H-1,2,3-triazol-1-yl}-2-hydroxypropylphosphonate], the IC50 is greater than 250 µM in data set [1] (Homo sapiens, CCRF-CEM, 72 h); 195 ± 78 µM in data set [2] (Homo sapiens, HeLa, 72 h); greater than 250 µM in data set [3] (setting [9]).

For `CCOP(=O)(OCC)C(O)CCn1cc(Cn2cnc3c(=O)[nH]c(N)nc32)nn1` (centres unmarked) [Compound 16g, Diethyl 3-{4-[(2-amino-6-oxo-1,6-dihydro-9H-purin-9-yl)methyl]-1H-1,2,3-triazol-1-yl}-1-hydroxypropylphosphonate], the IC50 in data set [1] (Homo sapiens, CCRF-CEM, 72 h) is greater than 250 µM; in data set [2] (Homo sapiens, HeLa, 72 h), 185 ± 35 µM; in data set [3] (setting [9]), greater than 250 µM.

As for `CCOP(=O)(COCCn1cc(Cn2cnc3c(=O)[nH]c(N)nc32)nn1)OCC` [Compound 16h, Diethyl 2-{4-[(2-amino-6-oxo-1,6-dihydro-9H-purin-9-yl)methyl]-1H-1,2,3-triazol-1-yl}ethoxymethyphosphonate], the melting point fell in the range of 89 to 92 °C. Besides, the IC50 in data set [1] (Homo sapiens, CCRF-CEM, 72 h) is greater than 250 µM. For the same compound, in data set [2] (Homo sapiens, HeLa, 72 h), the IC50 was no less than 250 µM. The IC50 in data set [3] (setting [9]) was greater than 250 µM.

Regarding `CCOP(=O)(CCOCCn1cc(Cn2cnc3c(=O)[nH]c(N)nc32)nn1)OCC` [Compound 16i, Diethyl 2-{4-[(2-amino-6-oxo-1,6-dihydro-9H-purin-9-yl)methyl]-1H-1,2,3-triazol-1-yl}ethoxyethyphosphonate], the IC50 in data set [1] (Homo sapiens, CCRF-CEM, 72 h) was greater than 250 µM; in data set [2] (Homo sapiens, HeLa, 72 h), 210 ± 13 µM; in data set [3] (setting [9]), greater than 250 µM.

`CCOP(=O)(CNC(=O)Cn1cc(Cn2cnc3c(=O)[nH]c(N)nc32)nn1)OCC` [Compound 16j, Diethyl 2-{4-[(2-amino-6-oxo-1,6-dihydro-9H-purin-9-yl)methyl]-1H-1,2,3-triazol-1-yl}acetamidomethyphosphonate] registered a melting point greater than 230 °C. Moreover, the IC50 in data set [1] (Homo sapiens, CCRF-CEM, 72 h) was greater than 250 µM. Further, the IC50 in data set [2] (Homo sapiens, HeLa, 72 h) amounted to 212 ± 54 µM. For the same compound, in data set [3] (setting [9]), the IC50 was greater than 250 µM.

Turning to `CCOP(=O)(Cn1cc(Cn2cnc3c(Cl)nc(N)nc32)nn1)OCC` [Compound 17a, Diethyl {4-[(2-amino-6-chloro-9H-purin-9-yl)methyl]-1H-1,2,3-triazol-1-yl}methylphosphonate], the IC50 in data set [1] (Homo sapiens, CCRF-CEM, 72 h) is no less than 250 µM; in data set [2] (Homo sapiens, HeLa, 72 h), no less than 250 µM; in data set [3] (setting [9]), 283 ± 17 µM.

With `CCOP(=O)(CCn1cc(Cn2cnc3c(Cl)nc(N)nc32)nn1)OCC` [Compound 17b, Diethyl 2-{4-[(2-amino-6-chloro-9H-purin-9-yl)methyl]-1H-1,2,3-triazol-1-yl}ethylphosphonate], the IC50 in data set [1] (Homo sapiens, CCRF-CEM, 72 h) was greater than 250 µM; in data set [2] (Homo sapiens, HeLa, 72 h), 227 ± 32 µM; in data set [3] (setting [9]) it was no less than 250 µM.

As for `CCOP(=O)(CCCn1cc(Cn2cnc3c(Cl)nc(N)nc32)nn1)OCC` [Compound 17c, Diethyl 3-{4-[(2-amino-6-chloro-9H-purin-9-yl)methyl]-1H-1,2,3-triazol-1-yl}propylphosphonate], the IC50 in data set [1] (Homo sapiens, CCRF-CEM, 72 h) was greater than 250 µM; in data set [2] (Homo sapiens, HeLa, 72 h), no less than 250 µM; in data set [3] (setting [9]), 227 ± 32 µM.

Consider `CCOP(=O)(CCCCn1cc(Cn2cnc3c(Cl)nc(N)nc32)nn1)OCC` [Compound 17d, Diethyl 4-{4-[(2-amino-6-chloro-9H-purin-9-yl)methyl]-1H-1,2,3-triazol-1-yl}butylphosphonate], for which the IC50 in data set [1] (Homo sapiens, CCRF-CEM, 72 h) was greater than 250 µM; in data set [2] (Homo sapiens, HeLa, 72 h), no less than 250 µM; in data set [3] (setting [9]), greater than 250 µM.

With `CCOP(=O)(CC(O)Cn1cc(Cn2cnc3c(Cl)nc(N)nc32)nn1)OCC` (centres unmarked) [Compound 17f, Diethyl 3-{4-[(2-amino-6-chloro-9H-purin-9-yl)methyl]-1H-1,2,3-triazol-1-yl}-2-hydroxypropylphosphonate], the IC50 was greater than 250 µM in data set [1] (Homo sapiens, CCRF-CEM, 72 h); greater than 250 µM in data set [2] (Homo sapiens, HeLa, 72 h); greater than 250 µM in data set [3] (setting [9]).

Consider `CCOP(=O)(OCC)C(O)CCn1cc(Cn2cnc3c(Cl)nc(N)nc32)nn1` (centres unmarked) [Compound 17g, Diethyl 3-{4-[(2-amino-6-chloro-9H-purin-9-yl)methyl]-1H-1,2,3-triazol-1-yl}-1-hydroxypropylphosphonate], for which the IC50 in data set [1] (Homo sapiens, CCRF-CEM, 72 h) is greater than 250 µM; in data set [2] (Homo sapiens, HeLa, 72 h), greater than 250 µM; in data set [3] (setting [9]), greater than 250 µM.

With `CCOP(=O)(COCCn1cc(Cn2cnc3c(Cl)nc(N)nc32)nn1)OCC` [Compound 17h, Diethyl 2-{4-[(2-amino-6-chloro-9H-purin-9-yl)methyl]-1H-1,2,3-triazol-1-yl}-ethoxymethylphosphonate], the IC50 in data set [1] (Homo sapiens, CCRF-CEM, 72 h) is no less than 250 µM; in data set [2] (Homo sapiens, HeLa, 72 h), greater than 250 µM; in data set [3] (setting [9]) it was greater than 250 µM.

Regarding `CCOP(=O)(CCOCCn1cc(Cn2cnc3c(Cl)nc(N)nc32)nn1)OCC` [Compound 17i, Diethyl 2-{4-[(2-amino-6-chloro-9H-purin-9-yl)methyl]-1H-1,2,3-triazol-1-yl}-ethoxyethylphosphonate], the IC50 in data set [1] (Homo sapiens, CCRF-CEM, 72 h) is greater than 250 µM; in data set [2] (Homo sapiens, HeLa, 72 h) it was greater than 250 µM; in data set [3] (setting [9]), greater than 250 µM.

Consider “Diethyl 2-{4-[(2-amino-6-chloro-9H-purin-9-yl)methyl]-1H-1,2,3-triazol-1-yl}-acetamidoethylphosphonate [Compound 17j]”, for which the IC50 in data set [1] (human T-lymphocyte CEM cells, 72 h proliferation, Coulter counter) is greater than 250 µM; in data set [2] (setting [5]), greater than 250 µM; in data set [3] (murine leukemia L1210 cells, 48 h proliferation, Coulter counter, read-out: IC50 (L1210)), greater than 250 µM.
